Data published in PMC10081574, “Evaluation of Antiviral Activity of Gemcitabine Derivatives against Influenza Virus and Severe Acute Respiratory Syndrome Coronavirus 2” (ACS Infectious Diseases, 2023).
Like-named read-outs stand apart in the source and are kept apart here.

Tests used:
B/Lee/40 = assay: CPE reduction antiviral assay in Lee-infected MDCK cells (MTT); type: cell-based, influenza B virus; conditions: for EC90 / EC50: Influenza B virus, 72 h, MDCK; for EC90: read-out: EC90 Lee; for EC50: viability of infected cells to 50%; for SI90 Lee: ratio of CC10 to EC90; for SI50 Lee: ratio of CC50 to EC50
[1] = system: influenza A and B viruses; assay: CPE reduction antiviral assay, values summarised over influenza strains PR8, HK and Lee; type: cell-based, influenza virus; conditions: for EC90 / EC50: span over PR8, HK and Lee; for EC90 / EC50 / subtoxic concentration at which over 90% viability of infected cells was recorded / recovery of viability of virus-infected cells with 90% cutoff: MDCK; for EC90: read-out: EC90 against influenza viruses; for SI90 against influenza viruses / SI50 against influenza viruses: over PR8, HK and Lee; for SI90 against influenza viruses: CC10/EC90; for EC50: read-out: EC50 against influenza viruses; for subtoxic concentration at which over 90% viability of infected cells was recorded / recovery of viability of virus-infected cells with 90% cutoff: day 3; for SI50 against influenza viruses: CC50/EC50
[2] = system: A/Puerto Rico/8/34 (H1N1); conditions: for SI90 PR8: ratio of CC10 to EC90; for SI50 PR8: ratio of CC50 to EC50
A/Hong Kong/8/68 (H3N2) [3] = conditions: for SI90 HK: ratio of CC10 to EC90; for SI50 HK: ratio of CC50 to EC50
in vitro = conditions: dog
[4] = system: A/Puerto Rico/8/34 (H1N1); assay: microbe, parasite or virus in culture; conditions: Influenza A virus, 72 h; for EC50 / EC90: H1N1 / PR8, MDCK; for EC50: read-out: EC50 PR8; for EC90: read-out: EC90 PR8; for viability at 10 µM: H1N1|PR8, MDCK, read-out: viability of PR8-infected cells in library screening
A/Hong Kong/8/68 (H3N2) [5] = assay: microbe, parasite or virus in culture; conditions: Influenza A virus, H3N2, MDCK, 72 h; for EC50: read-out: EC50 HK; for EC90: read-out: EC90 HK; for viability at 10 µM: read-out: viability of HK-infected cells in library screening
MDCK cells = conditions: dog, 3 days
[6] = MOI 0.001, day 3, viability of infected cells to 90%
[7] = MOI 0.001, day 3, read-out: EC50 Lee

O=C(Nc1ccn([C@@H]2O[C@H](CO)[C@@H](O)C2(F)F)c(=O)n1)c1ccc(F)cn1 [Compound 2f]
EC90 (B/Lee/40; [6]): 25.7 ± 6.4 µM
EC50 (B/Lee/40; [7]): 3.2 ± 2.3 µM
SI90 Lee (B/Lee/40): > 11.7
SI50 Lee (B/Lee/40): > 94.8
EC90 ([1]; Influenza A virus, PR8, MDCK): 10.7 to 34.3 µM
SI90 against influenza viruses [1]: > 8.7
SI90 PR8 [2]: > 11.1
SI50 PR8 [2]: > 41.6
SI90 HK (A/Hong Kong/8/68 (H3N2) [3]): > 28.0
SI50 HK (A/Hong Kong/8/68 (H3N2) [3]): > 49.9
CC50 at 3 days (in vitro): > 300 µM
EC50 [4]: 7.2 ± 0.4 µM
EC90 [4]: 26.9 ± 16.3 µM
EC50 (A/Hong Kong/8/68 (H3N2) [5]): 6 ± 0.1 µM
EC90 (A/Hong Kong/8/68 (H3N2) [5]): 10.7 ± 0.2 µM

CCC(CC)O[C@@H]1C=C(C(=O)O)C[C@H](N)[C@H]1NC(C)=O [Oseltamivir carboxylate, reference compound]
EC90 (B/Lee/40; [6]): 60.4 ± 0.1 µM
EC50 (B/Lee/40; [7]): 10 ± 0.9 µM
SI90 Lee (B/Lee/40): > 5.0
SI50 Lee (B/Lee/40): > 30.0
CC10 (MDCK cells): >300.0 µM
SI90 PR8 [2]: > 24.0
SI50 PR8 [2]: > 375.0
SI90 HK (A/Hong Kong/8/68 (H3N2) [3]): > 600.0
SI50 HK (A/Hong Kong/8/68 (H3N2) [3]): > 6,000
CC50 at 3 days (in vitro): > 300 µM
EC50 [4]: 0.8 ± 0.4 µM
EC90 [4]: 12.5 ± 8.1 µM
EC50 (A/Hong Kong/8/68 (H3N2) [5]): < 0.05 µM
EC90 (A/Hong Kong/8/68 (H3N2) [5]): 0.5 ± 0.2 µM

NC(=O)c1nc(F)c[nH]c1=O [Favipiravir, reference compound]
EC90 (B/Lee/40; [6]): 16.3 ± 4.2 µM
EC50 (B/Lee/40; [7]): 1.5 ± 0.2 µM
SI90 Lee (B/Lee/40): > 18.4
SI50 Lee (B/Lee/40): > 200.0
CC10 (MDCK cells): >300.0 µM
SI90 PR8 [2]: > 35.3
SI50 PR8 [2]: > 166.7
SI90 HK (A/Hong Kong/8/68 (H3N2) [3]): > 43.5
SI50 HK (A/Hong Kong/8/68 (H3N2) [3]): > 100.0
CC50 at 3 days (in vitro): > 300 µM
EC50 [4]: 1.8 ± 0.1 µM
EC90 [4]: 8.5 ± 0.2 µM
EC50 (A/Hong Kong/8/68 (H3N2) [5]): 3 ± 0.4 µM
EC90 (A/Hong Kong/8/68 (H3N2) [5]): 6.9 ± 1.8 µM

O=C(Nc1ccn([C@@H]2O[C@H](CO)[C@@H](O)C2(F)F)c(=O)n1)c1ccccn1 [Compound 2a]
EC90 (B/Lee/40; [6]): 2.2 ± 0.8 µM
EC50 (B/Lee/40; [7]): 0.6 µM
SI90 Lee (B/Lee/40): 4.4
SI50 Lee (B/Lee/40): > 495.7
EC90 ([1]; Influenza A virus, PR8, MDCK): 1.4 to 2.2 µM
EC50 ([1]; Influenza A virus): 0.6 to 0.9 µM
subtoxic concentration at which over 90% viability of infected cells was recorded [1]: 3.7 µM
SI90 against influenza viruses [1]: 4.4–7.1
SI50 against influenza viruses [1]: > 342.5
EC90 [1]: 1.4 to 16.9 µM
SI90 PR8 [2]: 5.5
SI50 PR8 [2]: > 342.5
SI90 HK (A/Hong Kong/8/68 (H3N2) [3]): 7.1
SI50 HK (A/Hong Kong/8/68 (H3N2) [3]): > 462.2
CC50 at 3 days (in vitro): > 300 µM
EC50 [4]: 0.9 ± 0.2 µM
EC90 [4]: 1.8 ± 0.5 µM
viability at 10 µM [4]: > 50%
EC50 (A/Hong Kong/8/68 (H3N2) [5]): 0.6 µM
EC90 (A/Hong Kong/8/68 (H3N2) [5]): 1.4 ± 0.1 µM
viability at 10 µM (A/Hong Kong/8/68 (H3N2) [5]): > 50%

O=C(Nc1ccn([C@@H]2O[C@H](CO)[C@@H](O)C2(F)F)c(=O)n1)c1ccccc1 [Compound 1]
EC50 (B/Lee/40; read-out: EC50 Lee, MDCK, MOI 0.001, day 3): 22.5 ± 0.4 µM
EC90 (B/Lee/40): 78.7 ± 2.7 µM
SI50 Lee (B/Lee/40): > 13.3
EC90 ([1]; Influenza A virus, PR8, MDCK): 76.2 to 98.1 µM
EC50 ([1]; Influenza A virus): 22.5 to 54.2 µM
subtoxic concentration at which over 90% viability of infected cells was recorded [1]: 100 µM
SI90 against influenza viruses [1]: > 1.9
SI50 against influenza viruses [1]: > 5.5
SI90 PR8 [2]: > 3.9
SI50 PR8 [2]: > 6.9
EC50 ([2]; read-out: EC50 PR8): 43.5 ± 8.6 µM
SI90 HK (A/Hong Kong/8/68 (H3N2) [3]): > 3.1
SI50 HK (A/Hong Kong/8/68 (H3N2) [3]): > 5.5
CC50 at 3 days (in vitro): > 300 µM
EC50 [4]: 43.4 ± 8.6 µM
EC90 [4]: 76.2 ± 30.9 µM
viability at 10 µM [4]: 10 to 20%
EC50 (A/Hong Kong/8/68 (H3N2) [5]): 54.2 ± 5.1 µM
EC90 (A/Hong Kong/8/68 (H3N2) [5]): 98.1 ± 0.2 µM
viability at 10 µM (A/Hong Kong/8/68 (H3N2) [5]): 10 to 20%

O=C(Nc1ccn([C@@H]2O[C@H](CO)[C@@H](O)C2(F)F)c(=O)n1)c1ccc(F)nc1 [Compound 3c]
EC90 (B/Lee/40; [6]): 22.6 ± 2 µM
EC50 (B/Lee/40; [7]): 1.8 ± 0.3 µM
SI90 Lee (B/Lee/40): 11.1
SI50 Lee (B/Lee/40): > 170.6
EC90 ([1]; Influenza A virus, PR8, MDCK): 4.9 to 22.6 µM
recovery of viability of virus-infected cells with 90% cutoff [1]: active
SI90 PR8 [2]: 20.0
SI50 PR8 [2]: > 90.6
SI90 HK (A/Hong Kong/8/68 (H3N2) [3]): 51.2
SI50 HK (A/Hong Kong/8/68 (H3N2) [3]): > 116.6
CC50 at 3 days (in vitro): > 300 µM
EC50 [4]: 3.3 ± 0.1 µM
EC90 [4]: 12.5 ± 3.6 µM
EC50 (A/Hong Kong/8/68 (H3N2) [5]): 2.6 ± 0.4 µM
EC90 (A/Hong Kong/8/68 (H3N2) [5]): 4.9 ± 0.4 µM

COc1ccc(C(=O)Nc2ccn([C@@H]3O[C@H](CO)[C@@H](O)C3(F)F)c(=O)n2)cn1 [Compound 3e]
EC50 (B/Lee/40; [7]): 18.5 ± 2 µM
SI50 Lee (B/Lee/40): > 16.2
CC10 (MDCK cells): 129.7 ± 74.0 µM
SI50 PR8 [2]: > 12.8
SI50 HK (A/Hong Kong/8/68 (H3N2) [3]): > 12.5
CC50 at 3 days (in vitro): > 300 µM
EC50 [4]: 23.5 ± 4.1 µM
EC50 (A/Hong Kong/8/68 (H3N2) [5]): 24 ± 2 µM

O=C(Nc1ccn([C@@H]2O[C@H](CO)[C@@H](O)C2(F)F)c(=O)n1)c1ccc(Cl)nc1 [Compound 3d]
EC50 (B/Lee/40; [7]): 10.6 ± 1.7 µM
SI50 Lee (B/Lee/40): > 28.4
CC10 (MDCK cells): 91.1 ± 53.8 µM
SI50 PR8 [2]: > 23.8
SI50 HK (A/Hong Kong/8/68 (H3N2) [3]): > 31.5
CC50 at 3 days (in vitro): > 300 µM
EC50 [4]: 12.6 ± 2.5 µM
EC50 (A/Hong Kong/8/68 (H3N2) [5]): 9.5 ± 0.3 µM

Cc1ccc(C(=O)Nc2ccn([C@@H]3O[C@H](CO)[C@@H](O)C3(F)F)c(=O)n2)cn1 [Compound 3b]
EC90 (B/Lee/40; [6]): 1.7 µM
EC50 (B/Lee/40; [7]): 0.7 µM
SI90 Lee (B/Lee/40): 6.0
SI50 Lee (B/Lee/40): > 426.6
EC90 ([1]; Influenza A virus, PR8, MDCK): 1.4 to 1.8 µM
recovery of viability of virus-infected cells with 90% cutoff [1]: active
SI90 PR8 [2]: 5.7
SI50 PR8 [2]: > 325.8
SI90 HK (A/Hong Kong/8/68 (H3N2) [3]): 7.3
SI50 HK (A/Hong Kong/8/68 (H3N2) [3]): > 437.2
CC50 at 3 days (in vitro): > 300 µM
EC50 [4]: 0.9 µM
EC90 [4]: 1.8 ± 0.1 µM
EC50 (A/Hong Kong/8/68 (H3N2) [5]): 0.7 µM
EC90 (A/Hong Kong/8/68 (H3N2) [5]): 1.4 ± 0.2 µM

O=C(Nc1ccn([C@@H]2O[C@H](CO)[C@@H](O)C2(F)F)c(=O)n1)c1ccc(C(F)(F)F)nc1 [Compound 3f]
EC50 (B/Lee/40; [7]): 4.1 ± 0.1 µM
SI50 Lee (B/Lee/40): > 73.9
CC10 (MDCK cells): 7.9 ± 8.4 µM
SI50 PR8 [2]: > 73.6
SI50 HK (A/Hong Kong/8/68 (H3N2) [3]): > 84.7
CC50 at 3 days (in vitro): > 300 µM
EC50 [4]: 4.1 ± 0.3 µM
EC50 (A/Hong Kong/8/68 (H3N2) [5]): 3.5 ± 0.6 µM

Cc1nc(C(F)(F)F)ccc1C(=O)Nc1ccn([C@@H]2O[C@H](CO)[C@@H](O)C2(F)F)c(=O)n1 [Compound 3g]
antiviral activity against influenza viruses (in words) [1]: completely lost antiviral activity
CC10 (MDCK cells): 8.7 ± 8.2 µM
CC50 at 3 days (in vitro): > 300 µM
